Calls of active or inactive are those of the source. The calls are words filed in the database; no cut-off is given here.
The compounds below were run on Radical scavenging activity (assay: Antioxidant activity assessed as DPPH radical scavenging activity by spectrophotometric assay).
Format: functional

SMILES | Activity
COc1ccc(Nc2cc3c(c(N)c2C(C)C)C[C@@H]2[C@](C)(CCC[C@@]2(C)C(=O)O)C3)cc1 | Active
COc1ccc(Nc2cc3c(c(Nc4ccc(OC)cc4)c2C(C)C)C[C@@H]2[C@](C)(CCC[C@@]2(C)C(=O)O)C3)cc1 | Active
COc1ccccc1Nc1cc2c(cc1C(C)C)C[C@@H]1[C@](C)(CCC[C@@]1(C)C(=O)O)C2 | Active
COc1ccc(Nc2c(C(C)C)ccc3c2C[C@@H]2[C@](C)(CCC[C@@]2(C)C(=O)O)C3)cc1 | Active
COc1ccccc1Nc1cc2c(c(Nc3ccccc3OC)c1C(C)C)C[C@@H]1[C@](C)(CCC[C@@]1(C)C(=O)O)C2 | Active
CC(C)c1ccc2c(c1Nc1ccccc1)C[C@@H]1[C@](C)(CCC[C@@]1(C)C(=O)O)C2 | Active
COc1ccccc1Nc1cc2c(c([N+](=O)[O-])c1C(C)C)C[C@@H]1[C@](C)(CCC[C@@]1(C)C(=O)O)C2 | Active
CC(C)c1c(Nc2ccccc2)cc2c(c1Nc1ccccc1)C[C@@H]1[C@](C)(CCC[C@@]1(C)C(=O)O)C2 | Active
COc1ccc(Nc2cc3c(c([N+](=O)[O-])c2C(C)C)C[C@@H]2[C@](C)(CCC[C@@]2(C)C(=O)O)C3)cc1 | Active
CC(C)c1cc2c(cc1Nc1ccccc1)C[C@@]1(C)CCC[C@@](C)(C(=O)O)[C@@H]1C2 | Active
COc1ccccc1Nc1cc2c(c(N)c1C(C)C)C[C@@H]1[C@](C)(CCC[C@@]1(C)C(=O)O)C2 | Active
CC(C)c1c(Nc2ccccc2)cc2c(c1N)C[C@@H]1[C@](C)(CCC[C@@]1(C)C(=O)O)C2 | Active
COc1ccccc1Nc1c(C(C)C)ccc2c1C[C@@H]1[C@](C)(CCC[C@@]1(C)C(=O)O)C2 | Active
Cc1cc(C(C)(C)C)c(O)c(C(C)(C)C)c1 | Active
COc1ccc(Nc2cc3c(cc2C(C)C)C[C@@H]2[C@](C)(CCC[C@@]2(C)C(=O)O)C3)cc1 | Active
CC(C)c1c(Nc2ccccc2)cc2c(c1[N+](=O)[O-])C[C@@H]1[C@](C)(CCC[C@@]1(C)C(=O)O)C2 | Active

From ChEMBL document CHEMBL1150862, “Synthetic derivatives of abietic acid with radical scavenging activity” (J Nat Prod, 2001)
